From the supplement of paper PMC10627819

Assays:
B. subtilis 168 [1] = assay: fitness (endpoint OD595 vs no drug) (fraction); higher = more growth
Outline: (§1)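 Each well of a 384-well plate received 30 µl of culture at OD595 0.01, or 55 µl for S. pneumoniae. TSB, LB Lennox or CY served as media at 37 °C. OD595 was taken every 30 min for 14 h and corrected by subtracting the first reading. Fitness is the optical density at stationary-phase entry divided by the robust mean of no-drug controls, capped at 1.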

S. pneumoniae D39V [2] = assay: as above
Outline: as §1

S. aureus DSM 20231 [3] = assay: as above
Outline: as §1

S. aureus Newman [4] = assay: as above
Outline: as §1

B. subtilis 168 [5] = assay: Bliss interaction score (quartile over a dose matrix) (fitness difference); higher = more antagonism (negative = synergy)
Outline: (§2)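 Growth in each well was taken as OD595 at entry into stationary phase. Dividing by the plate's robust no-drug mean and capping at 1 gave fitness, and single-drug fitness was inferred from the combination data. The Bliss score, observed minus product-expected fitness, is summarised by quartiles over technical, biological and donor/recipient replicates.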

S. pneumoniae D39V [6] = assay: as above
Outline: as §2

S. aureus DSM 20231 [7] = assay: as above
Outline: as §2

S. aureus Newman [8] = assay: as above
Outline: as §2
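Throughout, for Bliss interaction score (quartile over a dose matrix): first quartile when negative (synergy) and third quartile when positive (antagonism).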

Cc1ncc([N+](=O)[O-])n1CCO [Metronidazole] + Cc1cc(NS(=O)(=O)c2ccc(N)cc2)no1 [Sulfamethoxazol]
one replicate
Conditions	fitness
B. subtilis 168 [1], first compound 0.625 µg/mL, partner 0.5 µg/mL	≥ 1
B. subtilis 168 [1], first compound 1.25 µg/mL, partner 0.5 µg/mL	≥ 1
B. subtilis 168 [1], first compound 2.5 µg/mL, partner 0.5 µg/mL	≥ 1
S. aureus Newman [4], first compound 0.625 µg/mL, partner 8 µg/mL	0.864
S. aureus Newman [4], first compound 0.781 µg/mL, partner 1 µg/mL	≥ 1
S. aureus Newman [4], first compound 0.781 µg/mL, partner 2 µg/mL	≥ 1
S. aureus Newman [4], first compound 0.781 µg/mL, partner 4 µg/mL	≥ 1
S. aureus Newman [4], first compound 1.25 µg/mL, partner 8 µg/mL	0.911
S. aureus Newman [4], first compound 1.562 µg/mL, partner 1 µg/mL	≥ 1
S. aureus Newman [4], first compound 1.562 µg/mL, partner 2 µg/mL	≥ 1
S. aureus Newman [4], first compound 1.562 µg/mL, partner 4 µg/mL	≥ 1
S. aureus Newman [4], first compound 2.5 µg/mL, partner 8 µg/mL	0.898
S. aureus Newman [4], first compound 3.124 µg/mL, partner 1 µg/mL	0.992
S. aureus Newman [4], first compound 3.124 µg/mL, partner 2 µg/mL	0.982
S. aureus Newman [4], first compound 3.124 µg/mL, partner 4 µg/mL	≥ 1
S. pneumoniae D39V [2], first compound 1.25 µg/mL, partner 1 µg/mL	0.979
S. pneumoniae D39V [2], first compound 1.25 µg/mL, partner 2 µg/mL	≥ 1
S. pneumoniae D39V [2], first compound 1.25 µg/mL, partner 4 µg/mL	0.916
S. pneumoniae D39V [2], first compound 2.5 µg/mL, partner 1 µg/mL	≥ 1
S. pneumoniae D39V [2], first compound 2.5 µg/mL, partner 2 µg/mL	≥ 1
S. pneumoniae D39V [2], first compound 2.5 µg/mL, partner 4 µg/mL	0.917
S. pneumoniae D39V [2], first compound 5 µg/mL, partner 1 µg/mL	≥ 1
S. pneumoniae D39V [2], first compound 5 µg/mL, partner 2 µg/mL	≥ 1
S. pneumoniae D39V [2], first compound 5 µg/mL, partner 4 µg/mL	0.9

fitness
Conditions	first compound 0.625 µg/mL	first compound 1.073 µg/mL	first compound 1.25 µg/mL	first compound 2.145 µg/mL	first compound 2.5 µg/mL	first compound 4.29 µg/mL
B. subtilis 168 [1], partner 1 µg/mL	0.876	–	0.951	–	0.948	–
B. subtilis 168 [1], partner 2 µg/mL	0.91	–	0.903	–	0.896	–
B. subtilis 168 [1], partner 4 µg/mL	0.962	–	0.992	–	0.96	–
S. aureus DSM 20231 [3], partner 1 µg/mL	0.982	–	≥ 1	–	≥ 1	–
S. aureus DSM 20231 [3], partner 2 µg/mL	0.983	–	0.986	–	0.988	–
S. aureus DSM 20231 [3], partner 4 µg/mL	0.963	–	0.969	–	0.992	–
S. aureus Newman [4], partner 1 µg/mL	≥ 1	–	0.977	–	0.97	–
S. aureus Newman [4], partner 2 µg/mL	0.94	–	0.978	–	0.95	–
S. aureus Newman [4], partner 4 µg/mL	0.979	–	0.997	–	≥ 1	–
S. pneumoniae D39V [2], partner 1 µg/mL	–	0.935	–	0.792	–	0.912
S. pneumoniae D39V [2], partner 2 µg/mL	–	0.952	–	0.93	–	0.95
S. pneumoniae D39V [2], partner 4 µg/mL	–	0.984	–	0.952	–	0.944

Conditions	Bliss interaction score
B. subtilis 168 [5]	0.0475
S. aureus DSM 20231 [7]	0.0776
S. aureus Newman [8]	0.0439
S. pneumoniae D39V [6]	-0.0219

Cc1ncc([N+](=O)[O-])n1CCO [Metronidazole] + Cc1onc(-c2ccccc2)c1C(=O)N[C@@H]1C(=O)N2[C@@H]1SC(C)(C)[C@@H]2C(=O)O [Oxacillin]
fitness
Conditions	first compound 0.625 µg/mL	first compound 1.073 µg/mL	first compound 1.25 µg/mL	first compound 2.145 µg/mL	first compound 2.5 µg/mL	first compound 4.29 µg/mL	first compound 5 µg/mL
B. subtilis 168 [1], partner 0.002 µg/mL	0.972	–	0.962	–	0.942	–	–
B. subtilis 168 [1], partner 0.004 µg/mL	0.957	–	≥ 1	–	0.942	–	–
B. subtilis 168 [1], partner 0.008 µg/mL	0.946	–	0.869	–	0.858	–	–
S. aureus DSM 20231 [3], partner 0.0156 µg/mL	0.937	–	≥ 1	–	0.991	–	–
S. aureus DSM 20231 [3], partner 0.0312 µg/mL	–	–	0.816	–	0.828	–	–
S. aureus DSM 20231 [3], partner 0.0625 µg/mL	0.632	–	0.645	–	–	–	–
S. aureus Newman [4], partner 0.0156 µg/mL	0.772	–	0.785	–	0.768	–	–
S. aureus Newman [4], partner 0.0312 µg/mL	0.737	–	0.786	–	0.702	–	–
S. aureus Newman [4], partner 0.0625 µg/mL	0.658	–	0.551	–	0.601	–	–
S. pneumoniae D39V [2], partner 0.01 µg/mL	–	0.971	0.985	0.891	0.981	0.965	0.97
S. pneumoniae D39V [2], partner 0.02 µg/mL	–	0.964	0.959	0.967	0.995	–	0.948
S. pneumoniae D39V [2], partner 0.04 µg/mL	–	0.845	0.625	0.888	0.648	0.839	0.566

fitness, one replicate
Conditions	first compound 0.625 µg/mL	first compound 0.781 µg/mL	first compound 1.25 µg/mL	first compound 1.562 µg/mL	first compound 2.5 µg/mL	first compound 3.124 µg/mL
B. subtilis 168 [1], partner 0.075 µg/mL	0.548	–	0.664	–	0.507	–
B. subtilis 168 [1], partner 0.15 µg/mL	0.0434	–	0.0679	–	0.0716	–
B. subtilis 168 [1], partner 0.3 µg/mL	0.0488	–	0.0601	–	0.0718	–
S. aureus Newman [4], partner 0.0156 µg/mL	–	0.826	–	0.749	–	0.817
S. aureus Newman [4], partner 0.0312 µg/mL	–	0.737	–	0.737	–	0.721
S. aureus Newman [4], partner 0.0625 µg/mL	–	0.655	–	0.643	–	0.705

Conditions	Bliss interaction score
B. subtilis 168 [5]	0.0534
S. aureus DSM 20231 [7]	0.0451
S. aureus Newman [8]	0.0703
S. pneumoniae D39V [6]	0.144
